Assays:
cyclooxygenase-1 = molecular target: T1, cyclooxygenase-1 (Mus musculus, UniProt P22437); assay: Inhibition of cyclooxygenase-1 in mouse peritoneal macrophages (PGE2 ELISA); assay type: cell-based
T1 construct: endogenous in cells; host or cells: primary mouse peritoneal macrophages (unstimulated)
T1 sequence (P22437 27-602): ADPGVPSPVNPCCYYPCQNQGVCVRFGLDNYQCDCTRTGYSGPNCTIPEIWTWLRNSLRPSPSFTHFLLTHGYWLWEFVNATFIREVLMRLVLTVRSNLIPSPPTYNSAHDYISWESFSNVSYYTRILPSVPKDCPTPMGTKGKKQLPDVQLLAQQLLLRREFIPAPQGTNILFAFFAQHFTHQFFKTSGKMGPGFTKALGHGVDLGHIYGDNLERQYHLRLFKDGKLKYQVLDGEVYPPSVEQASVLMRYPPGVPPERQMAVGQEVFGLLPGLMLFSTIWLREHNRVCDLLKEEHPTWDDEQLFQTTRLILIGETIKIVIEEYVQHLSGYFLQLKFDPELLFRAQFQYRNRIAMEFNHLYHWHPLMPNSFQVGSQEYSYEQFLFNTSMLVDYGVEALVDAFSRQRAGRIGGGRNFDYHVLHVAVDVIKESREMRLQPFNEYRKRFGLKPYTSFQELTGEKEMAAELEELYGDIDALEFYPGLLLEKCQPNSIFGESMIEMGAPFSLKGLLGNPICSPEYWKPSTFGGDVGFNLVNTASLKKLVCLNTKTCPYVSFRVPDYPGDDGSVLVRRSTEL
Procedure: First of all, the cyclooxygenase-1 was examined through the following procedure.
Peritoneal fluid in which macrophages were suspended was extracted from a mouse peritoneal cavity and centrifuged at 4° C., 1,000 rpm for 2 minutes. Then, the supernatant was removed, suspended with 20 ml of incomplete (no serum) RPMI medium [PC/SM (penicilin/streptomycin)] and again centrifuged under the same condition. […] Then, the cell number was calculated with the hemocytometer and adjusted to reach 1×10^6 cells/ml of cell concentration in the final cell suspension. 100 μl of the resulting suspension was transferred into each well of 96-well plate and left at 37° C. in 5% CO2 with the incubator for about 2 hours in order to attach macrophages. […] The resulting cell was cultivated in the incubator at 37° C. in 5% CO2 for about 12˜16 hours. Then, arachidonic acid was added, adjusting to 10 μM of a final concentration and incubated at 37° C. for more 10 minutes and the supernatant of the reacted solution (˜180 μl) was recovered to finish the reaction.

cyclooxygenase-2 = molecular target: T2, cyclooxygenase-2 (Mus musculus, UniProt Q05769); assay: Inhibition of cyclooxygenase-2 in aspirin-pretreated, LPS-stimulated mouse peritoneal macrophages (PGE2 ELISA); assay type: cell-based
T2 construct: Peritoneal fluid suspended with macrophages was extracted from a mouse peritoneal cavity; endogenous in cells; host or cells: primary mouse peritoneal macrophages, pretreated with 500 uM aspirin and stimulated with 10 ug/ml LPS
T2 sequence (Q05769 18-604): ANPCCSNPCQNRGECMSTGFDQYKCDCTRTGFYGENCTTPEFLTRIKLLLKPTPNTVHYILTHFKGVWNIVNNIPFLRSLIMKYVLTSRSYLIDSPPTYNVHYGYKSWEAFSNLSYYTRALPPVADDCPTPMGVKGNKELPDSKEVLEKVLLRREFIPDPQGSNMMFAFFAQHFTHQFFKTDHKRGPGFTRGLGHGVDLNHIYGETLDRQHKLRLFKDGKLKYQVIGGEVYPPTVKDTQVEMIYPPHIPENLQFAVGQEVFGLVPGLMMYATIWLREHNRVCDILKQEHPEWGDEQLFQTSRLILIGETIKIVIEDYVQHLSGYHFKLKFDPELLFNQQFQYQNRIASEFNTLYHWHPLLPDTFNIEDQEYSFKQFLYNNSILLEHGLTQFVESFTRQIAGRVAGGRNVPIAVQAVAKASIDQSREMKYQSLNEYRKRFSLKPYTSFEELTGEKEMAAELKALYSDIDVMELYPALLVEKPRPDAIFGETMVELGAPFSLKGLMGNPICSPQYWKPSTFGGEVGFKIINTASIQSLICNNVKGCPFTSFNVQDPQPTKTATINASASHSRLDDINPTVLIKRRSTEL
Procedure: Second, the cyclooxygenase-2 was examined through the following procedure.
Peritoneal fluid suspended with macrophages was extracted from a mouse peritoneal cavity and centrifuged at 4° C., 1,000 rpm for 2 minutes. Then, the supernatant was removed, suspended using incomplete RPMI medium [PC/SM (penicilin/streptomycin)] and again centrifuged under the same condition. […] Then, the cell number was calculated with the hemocytometer and adjusted to reach 1×10^6 cells/ml of cell concentration in the final cell suspension. The resulting suspension was treated with aspirin, adjusting 500 μM of final concentration and transferred into each well of 96-well plate in 100 μl respectively. Again, it was left at 37° C. in 5% CO2 in the incubator for about 2 hours in order to attach macrophages. […] The resulting cell was cultivated in the incubator at 37° C. in 5% CO2 for about 12˜16 hours. Then, arachidonic acid was added, adjusting to 10 μM of a final concentration and incubated at 37° C. for more 10 minutes and the supernatant of the reacted solution (˜180 μl) was recovered to finish the reaction.

[1] = in words, versus comparative substance

Inhibitory effects of cyclooxygenase (COX), COX-1 (cyclooxygenase-1; 3 μM) [% inhibition]	Inhibitory effects of cyclooxygenase (COX), COX-1 (cyclooxygenase-1; 10 μM) [% inhibition]	Inhibitory effects of cyclooxygenase (COX), COX-1 (cyclooxygenase-1; 30 μM) [% inhibition]	Inhibitory effects of cyclooxygenase (COX), COX-2 (cyclooxygenase-2; 30 nM)	Inhibitory effects of cyclooxygenase (COX), COX-2 (cyclooxygenase-2; 100 nM)	Inhibitory effects of cyclooxygenase (COX), COX-2 (cyclooxygenase-2; 300 nM)	selectivity of cyclooxygenase-2 (cyclooxygenase-2; in words, COX-2 over COX-1)	Compound	inhibition effect against cyclooxygenase-1 compared with comparative substance (cyclooxygenase-1; [1])	inhibition effect against cyclooxygenase-2 compared with comparative substance (cyclooxygenase-2; [1])
30	44.1	56.4	59.8 % inhibition	70.6 % inhibition	76.8 % inhibition	better than any other substances	CS(=O)(=O)c1ccc(-c2onc3c2-c2ccccc2CC3)cc1 [Example 7, 1-(4-methanesulfonyl-phenyl)-4,5-dihydro-naphto[2,1-c]isooxazole]	much lower level than a comparative substance	more excellent than a comparative substance
7.6	32.3	53.9	22.1 % inhibition	28.6 % inhibition	29.6 % inhibition		CC(=O)O/N=C1\CCc2ccccc2C1=Cc1ccc(S(C)(=O)=O)cc1 [Example 8, (E)-1-(4-methanesulfonyl-benzylidene)-3,4-dihydro-1H-naphthalene-2-one O-acetyl-oxime]		
22.8	31.1	42.1	20.4 % inhibition	25.5 % inhibition	30.1 % inhibition		CS(=O)(=O)c1ccc(C=C2/C(=N/OC(=O)COCc3ccccc3)CCc3ccccc32)cc1 [Example 9, (E)-1-(4-methanesulfonyl-benzylidene)-3,4-dihydro-1H-naphthalene-2-one O-benzyloxyacetyl-oxime]		
49.8	55.3	61.5	20.2 % inhibition	31.8 % inhibition	61.0 % inhibition		Cn1nc2c(c1-c1ccc(S(C)(=O)=O)cc1)-c1ccccc1CC2 [Example 10, 1-(4-methanesulfonyl-phenyl)-2-methyl-4,5-dihydro-2H-benzo[e]imidazole]		

Second part, the compound before the results:

Compound	Inhibitory effects of cyclooxygenase (COX), COX-1 (cyclooxygenase-1; 3 μM) [% inhibition]	Inhibitory effects of cyclooxygenase (COX), COX-1 (cyclooxygenase-1; 10 μM) [% inhibition]	Inhibitory effects of cyclooxygenase (COX), COX-1 (cyclooxygenase-1; 30 μM) [% inhibition]	Inhibitory effects of cyclooxygenase (COX), COX-2 (cyclooxygenase-2; 30 nM)	Inhibitory effects of cyclooxygenase (COX), COX-2 (cyclooxygenase-2; 100 nM)	Inhibitory effects of cyclooxygenase (COX), COX-2 (cyclooxygenase-2; 300 nM)	selectivity of cyclooxygenase-2 (cyclooxygenase-2; in words, COX-2 over COX-1)	inhibition effect against cyclooxygenase-1 compared with comparative substance (cyclooxygenase-1; [1])	inhibition effect against cyclooxygenase-2 compared with comparative substance (cyclooxygenase-2; [1])
CS(=O)(=O)c1ccc(/C=C2/C(=O)CCc3ccccc32)cc1 [Example 1, (E)-1-(4-methanesulfonyl-benzylidene)-3,4-dihydro-1H-naphthalene-2-one]	33.2	40.7	45.8	˜0 % inhibition	˜0 % inhibition	˜0 % inhibition			
CS(=O)(=O)c1ccc(C=C2/C(=N/O)CCc3ccccc32)cc1 [Example 2, (E)-1-(4-methanesulfonyl-benzylidene)-3,4-dihydro-1H-naphthalene-2-one oxime]	56.7	68.7	80.4	15.7 % inhibition	20.7 % inhibition	22 % inhibition			
CCO/N=C1\CCc2ccccc2C1=Cc1ccc(S(C)(=O)=O)cc1 [Example 3, (E)-1-(4-methanesulfonyl-benzylidene)-3,4-dihydro-1H-naphthalene-2-one O-ethyl Oxime]	60.4	64.4	74.6	50.1 % inhibition	58.8 % inhibition	70.2 % inhibition			
CO/N=C1\CCc2ccccc2C1=Cc1ccc(S(C)(=O)=O)cc1 [Example 4, (E)-1-(4-methanesulfonyl-benzylidene)-3,4-dihydro-1H-naphthalene-2-one O-methyl Oxime]	60.3	71.1	80.1	55.4 % inhibition	69.9 % inhibition	81.5 % inhibition			
CS(=O)(=O)c1ccc(C=C2/C(=N/OCc3ccccc3)CCc3ccccc32)cc1 [Example 5, (E)-1-(4-methanesulfonyl-benzylidene)-3,4-dihydro-1H-naphthalene-2-one O-benzyl Oxime]	39.9	47.1	54.3	51.2 % inhibition	55.4 % inhibition	61.4 % inhibition			
CS(=O)(=O)c1ccc(-c2[nH]nc3c2-c2ccccc2CC3)cc1 [Example 6, 1-(4-methanesulfonyl-phenyl)-4,5-dihydro-2H-benzo[e]indazole]	52.3	57.3	64.8	33.4 % inhibition	46.6 % inhibition	54.9 % inhibition			
